Calls of active or inactive are those of the source.

Holding throughout (type): functional
Assay [1] has as its target Mitogen-activated protein kinase kinase kinase kinase 2 (Homo sapiens, UniProt Q12851).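 Further: measured as one member of a kinome-wide kinase panel, with MAP4K2 as the panel entry.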
The target of assay [2] is 5'-AMP-activated protein kinase catalytic subunit alpha-1 (Homo sapiens, UniProt Q13131).
For assay [3], the target named is MAP kinase-activated protein kinase 2 (Homo sapiens, UniProt P49137).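 Further: measured as one member of a kinome-wide kinase panel.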
Assay [4] addresses Serine/threonine-protein kinase D3 (Homo sapiens, UniProt O94806).
The target in assay [5] is Tyrosine-protein kinase ABL1 (Homo sapiens, UniProt P00519).
For assay [6], the target named is Receptor-type tyrosine-protein kinase FLT3 (Homo sapiens, UniProt P36888).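 Further: FLT3 was tested as one member of a kinome-wide kinase panel.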
In assay [7] the target is Mitogen-activated protein kinase kinase kinase 20 (Homo sapiens, UniProt Q9NYL2).
Assay [8] has as its target Vascular endothelial growth factor receptor 2 (Homo sapiens, UniProt P35968).
In assay [9] the target is Serine/threonine-protein kinase PLK3 (Homo sapiens, UniProt Q9H4B4).
In assay [10] the target is Testis-specific serine/threonine-protein kinase 2 (Homo sapiens, UniProt Q96PF2).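 Further: part of the Navigating the Kinome panel, target entry STK22B.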
Sequence of Testis-specific serine/threonine-protein kinase 2 (Q96PF2 whole entry): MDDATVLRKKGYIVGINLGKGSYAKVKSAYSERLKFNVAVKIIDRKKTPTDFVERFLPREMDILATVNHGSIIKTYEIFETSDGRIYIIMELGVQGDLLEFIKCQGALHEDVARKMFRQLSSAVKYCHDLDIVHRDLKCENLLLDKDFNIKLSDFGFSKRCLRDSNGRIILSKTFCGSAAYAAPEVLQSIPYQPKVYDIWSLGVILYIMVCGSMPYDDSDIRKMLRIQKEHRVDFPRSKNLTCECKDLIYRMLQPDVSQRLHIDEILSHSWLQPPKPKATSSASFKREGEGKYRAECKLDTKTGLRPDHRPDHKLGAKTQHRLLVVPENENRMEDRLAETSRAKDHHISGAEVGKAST

Sequence of Mitogen-activated protein kinase kinase kinase 20 (Q9NYL2 whole entry): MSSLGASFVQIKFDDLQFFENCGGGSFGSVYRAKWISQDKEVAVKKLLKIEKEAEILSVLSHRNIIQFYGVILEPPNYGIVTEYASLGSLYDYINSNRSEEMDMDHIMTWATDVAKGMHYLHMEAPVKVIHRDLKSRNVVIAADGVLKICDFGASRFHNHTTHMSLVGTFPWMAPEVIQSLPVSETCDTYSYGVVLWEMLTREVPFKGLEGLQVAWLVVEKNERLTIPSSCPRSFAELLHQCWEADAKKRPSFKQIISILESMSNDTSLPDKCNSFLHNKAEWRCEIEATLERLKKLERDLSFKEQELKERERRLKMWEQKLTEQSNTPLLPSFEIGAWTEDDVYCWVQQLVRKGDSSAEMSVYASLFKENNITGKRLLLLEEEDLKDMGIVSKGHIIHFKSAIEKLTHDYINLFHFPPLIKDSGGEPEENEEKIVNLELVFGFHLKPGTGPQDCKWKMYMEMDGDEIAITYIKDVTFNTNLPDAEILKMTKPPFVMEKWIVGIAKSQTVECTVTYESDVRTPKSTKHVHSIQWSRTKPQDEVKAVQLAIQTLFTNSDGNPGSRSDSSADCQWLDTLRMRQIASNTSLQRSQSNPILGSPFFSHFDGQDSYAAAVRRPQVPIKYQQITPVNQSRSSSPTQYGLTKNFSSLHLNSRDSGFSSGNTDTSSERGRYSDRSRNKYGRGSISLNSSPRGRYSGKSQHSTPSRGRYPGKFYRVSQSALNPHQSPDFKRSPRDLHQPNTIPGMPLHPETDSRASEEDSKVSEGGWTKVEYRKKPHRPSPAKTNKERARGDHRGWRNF
Sequence of Vascular endothelial growth factor receptor 2 (P35968 whole entry): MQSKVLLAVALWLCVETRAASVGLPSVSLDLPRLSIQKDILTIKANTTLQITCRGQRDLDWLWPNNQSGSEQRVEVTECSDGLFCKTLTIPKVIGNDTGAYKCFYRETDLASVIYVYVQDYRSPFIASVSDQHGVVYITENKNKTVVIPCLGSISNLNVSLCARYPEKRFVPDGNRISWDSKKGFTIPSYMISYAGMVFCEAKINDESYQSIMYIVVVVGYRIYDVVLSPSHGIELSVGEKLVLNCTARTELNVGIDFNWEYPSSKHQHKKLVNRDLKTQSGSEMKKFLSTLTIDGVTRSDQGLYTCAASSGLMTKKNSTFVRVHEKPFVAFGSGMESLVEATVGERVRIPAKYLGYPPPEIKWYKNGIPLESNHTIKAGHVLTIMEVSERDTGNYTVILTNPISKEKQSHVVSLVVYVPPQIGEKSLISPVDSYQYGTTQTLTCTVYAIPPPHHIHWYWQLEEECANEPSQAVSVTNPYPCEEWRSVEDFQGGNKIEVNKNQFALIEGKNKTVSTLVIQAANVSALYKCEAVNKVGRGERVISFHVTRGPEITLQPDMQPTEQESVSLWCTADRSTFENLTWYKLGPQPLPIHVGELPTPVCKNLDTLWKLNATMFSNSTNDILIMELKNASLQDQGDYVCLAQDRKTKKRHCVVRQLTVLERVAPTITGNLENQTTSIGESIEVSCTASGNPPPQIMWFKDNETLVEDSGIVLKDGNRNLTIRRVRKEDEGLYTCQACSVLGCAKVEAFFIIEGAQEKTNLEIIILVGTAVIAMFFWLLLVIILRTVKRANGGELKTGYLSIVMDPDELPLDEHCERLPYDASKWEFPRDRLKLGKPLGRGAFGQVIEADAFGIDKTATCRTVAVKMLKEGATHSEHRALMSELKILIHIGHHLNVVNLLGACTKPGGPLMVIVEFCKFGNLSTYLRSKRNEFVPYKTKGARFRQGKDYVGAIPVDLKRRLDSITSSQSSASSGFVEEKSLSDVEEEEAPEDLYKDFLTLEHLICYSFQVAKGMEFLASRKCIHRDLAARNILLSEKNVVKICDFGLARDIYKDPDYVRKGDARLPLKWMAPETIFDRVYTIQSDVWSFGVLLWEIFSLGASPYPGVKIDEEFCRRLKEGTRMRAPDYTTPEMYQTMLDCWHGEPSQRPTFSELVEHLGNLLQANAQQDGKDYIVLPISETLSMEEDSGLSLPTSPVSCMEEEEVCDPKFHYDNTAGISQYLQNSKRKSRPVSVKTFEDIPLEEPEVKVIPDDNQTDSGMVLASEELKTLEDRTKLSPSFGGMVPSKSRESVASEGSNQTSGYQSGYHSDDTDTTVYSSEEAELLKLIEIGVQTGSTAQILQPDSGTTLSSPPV
Sequence of Serine/threonine-protein kinase D3 (O94806 whole entry): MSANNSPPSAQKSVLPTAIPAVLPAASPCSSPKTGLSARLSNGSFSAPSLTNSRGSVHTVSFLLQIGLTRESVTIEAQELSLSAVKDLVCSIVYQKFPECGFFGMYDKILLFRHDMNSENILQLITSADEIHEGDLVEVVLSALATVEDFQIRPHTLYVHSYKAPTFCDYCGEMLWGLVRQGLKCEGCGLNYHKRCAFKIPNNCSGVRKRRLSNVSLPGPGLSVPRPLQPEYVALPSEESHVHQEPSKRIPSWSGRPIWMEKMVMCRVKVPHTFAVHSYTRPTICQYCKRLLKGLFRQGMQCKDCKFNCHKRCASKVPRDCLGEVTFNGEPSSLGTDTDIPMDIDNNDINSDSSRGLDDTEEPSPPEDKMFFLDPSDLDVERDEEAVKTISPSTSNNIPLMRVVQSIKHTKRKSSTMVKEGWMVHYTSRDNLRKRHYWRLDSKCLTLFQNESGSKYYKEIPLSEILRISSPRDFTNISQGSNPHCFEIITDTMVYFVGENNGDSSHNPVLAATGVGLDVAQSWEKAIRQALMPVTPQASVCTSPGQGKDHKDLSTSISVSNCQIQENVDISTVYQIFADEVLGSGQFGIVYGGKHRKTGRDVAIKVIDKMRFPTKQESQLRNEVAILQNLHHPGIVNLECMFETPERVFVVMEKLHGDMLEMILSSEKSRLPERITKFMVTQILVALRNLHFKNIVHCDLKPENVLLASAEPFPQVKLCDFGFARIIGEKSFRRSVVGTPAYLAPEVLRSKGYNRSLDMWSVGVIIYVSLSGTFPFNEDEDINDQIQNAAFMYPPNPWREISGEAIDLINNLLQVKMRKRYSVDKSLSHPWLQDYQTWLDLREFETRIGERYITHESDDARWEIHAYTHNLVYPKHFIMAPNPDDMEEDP
Sequence of Serine/threonine-protein kinase PLK3 (Q9H4B4 whole entry): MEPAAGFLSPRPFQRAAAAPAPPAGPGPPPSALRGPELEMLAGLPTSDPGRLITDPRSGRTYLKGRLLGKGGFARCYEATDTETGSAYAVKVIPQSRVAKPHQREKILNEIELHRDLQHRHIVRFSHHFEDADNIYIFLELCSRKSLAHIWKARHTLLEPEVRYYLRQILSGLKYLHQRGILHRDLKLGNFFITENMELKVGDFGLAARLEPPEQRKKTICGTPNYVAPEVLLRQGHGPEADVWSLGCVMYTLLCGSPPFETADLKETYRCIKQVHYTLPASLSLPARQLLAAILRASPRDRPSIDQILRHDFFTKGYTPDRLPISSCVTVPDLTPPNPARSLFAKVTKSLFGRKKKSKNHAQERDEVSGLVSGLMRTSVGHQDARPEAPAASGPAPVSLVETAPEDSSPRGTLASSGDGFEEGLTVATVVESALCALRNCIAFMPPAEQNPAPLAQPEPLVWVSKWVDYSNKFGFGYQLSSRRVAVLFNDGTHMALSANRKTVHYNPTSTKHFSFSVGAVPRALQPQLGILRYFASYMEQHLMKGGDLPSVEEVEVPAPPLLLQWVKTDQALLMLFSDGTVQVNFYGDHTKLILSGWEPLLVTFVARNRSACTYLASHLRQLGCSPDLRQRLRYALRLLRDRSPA
Sequence of MAP kinase-activated protein kinase 2 (P49137 whole entry): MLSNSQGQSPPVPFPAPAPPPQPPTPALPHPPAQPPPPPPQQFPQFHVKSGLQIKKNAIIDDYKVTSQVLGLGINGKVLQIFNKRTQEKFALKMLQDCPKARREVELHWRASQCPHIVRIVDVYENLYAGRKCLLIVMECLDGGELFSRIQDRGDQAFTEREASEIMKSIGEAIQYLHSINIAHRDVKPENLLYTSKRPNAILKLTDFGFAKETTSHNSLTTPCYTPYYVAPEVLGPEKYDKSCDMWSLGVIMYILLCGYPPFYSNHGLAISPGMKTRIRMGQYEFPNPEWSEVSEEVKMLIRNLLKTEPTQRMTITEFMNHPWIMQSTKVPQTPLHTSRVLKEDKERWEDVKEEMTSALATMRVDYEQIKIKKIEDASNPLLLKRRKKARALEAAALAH
Sequence of 5'-AMP-activated protein kinase catalytic subunit alpha-1 (Q13131 whole entry): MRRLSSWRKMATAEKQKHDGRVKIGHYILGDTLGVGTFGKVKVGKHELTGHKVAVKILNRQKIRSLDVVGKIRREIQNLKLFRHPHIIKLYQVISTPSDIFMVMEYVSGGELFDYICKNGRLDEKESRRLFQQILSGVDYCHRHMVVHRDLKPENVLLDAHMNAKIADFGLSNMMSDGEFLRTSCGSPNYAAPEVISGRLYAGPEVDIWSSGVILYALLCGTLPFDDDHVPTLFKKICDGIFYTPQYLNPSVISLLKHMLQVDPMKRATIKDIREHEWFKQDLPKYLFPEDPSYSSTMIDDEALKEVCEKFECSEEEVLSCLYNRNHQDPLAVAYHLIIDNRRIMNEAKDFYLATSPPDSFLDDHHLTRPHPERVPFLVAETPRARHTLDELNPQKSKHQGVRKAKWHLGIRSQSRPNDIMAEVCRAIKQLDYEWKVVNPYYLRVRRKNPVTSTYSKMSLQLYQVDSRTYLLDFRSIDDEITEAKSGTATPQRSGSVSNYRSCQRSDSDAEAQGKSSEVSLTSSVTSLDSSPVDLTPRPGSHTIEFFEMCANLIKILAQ

As usually defined, the Ki is a dissociation constant, usually derived from enzyme kinetics or from competition with a known ligand. As for `CCn1c(-c2nonc2N)nc2cnc(Oc3cccc(NC(=O)c4ccc(OCCN5CCOCC5)cc4)c3)cc21` [GSK-269962A], the Ki was > 6.31 µM (inactive) in assay [1]; > 1.58 µM (inactive) in assay [2]; > 7.94 µM (inactive) in assay [3]; 2.51 µM (active) in assay [4]; > 0.631 µM (inactive) in assay [5]; 1.58 µM (active) in [6]. Further, the Ki in assay [7] was > 7.94 µM (inactive); in assay [8] it was > 7.94 µM (inactive); in assay [9], > 7.94 µM (inactive); in [10] it was > 1.58 µM (inactive).
